Measured values taken from PMC12736086, “Synthesis and In Vitro Evaluation of Anticancer Activity of Fluorophenyl Derivatives of 1,3,4-Thiadiazole Against Estrogen-Dependent Breast Cancer” (Molecules, 2025).

How the values were obtained:
MCF-7 cell line = test system: MCF-7 cell line; set-up: method as in PMID 35335177; conditions: MCF-7, previous study; cited from earlier work
[1] = test system: MDA-MB-231 (triple-negative) breast cancer cell line; assay: MTT assay, cell viability of MDA-MB-231 cells; assay type: cell-based, human; conditions: 24 h exposure
Procedure: (§1) To investigate how the tested compounds affect cell viability, experiments were performed using two human breast cancer cell lines—MDA-MB-231 and MCF-7 and human fibroblasts—HMF (normal cells). The MDA-MB-231 cell line represents a highly invasive, triple-negative breast cancer (TNBC) model, lacking estrogen receptor (ER), progesterone receptor (PR), and HER2 expression. In contrast, MCF-7 cells are estrogen receptor-positive (ER+), less invasive, and hormone-responsive, making them a well-established model for luminal-type breast cancer and hormone therapy research. Anastrozole, an aromatase inhibitor, served as a reference drug. The MTT assay applied in this study relies on mitochondrial dehydrogenase enzymes to reduce a water-soluble […] tetrazolium salt (3-(4,5-dimethylthiazol-2-yl)-2,5-diphenyltetrazolium bromide, or MTT) into a dark blue, insoluble formazan compound. The amount of this formazan product formed is directly related to the mitochondrial activity of viable, metabolically active cells in the sample. The efficacy of the compounds was assessed based on IC50 values and analysis of the concentration-dependence of cell survival.
(§2) The experiments were conducted using MDA-MB-231 and MCF-7 human breast cancer cell lines, as well as human fibroblasts (HMF). All cell lines were sourced from the American Type Culture Collection (ATCC; Manassas, VA, USA). Cells were maintained under standard culture conditions (37 °C, 5% CO2). Breast cancer cells were grown in Dulbecco’s Modified Eagle Medium (DMEM) supplemented with 10% fetal bovine serum (FBS), while fibroblasts were cultured in Eagle’s Minimum Essential Medium (EMEM) with the same serum concentration. To prevent microbial contamination, penicillin (100 U/mL) and streptomycin (100 µg/mL) were added to the media. All cell culture reagents were obtained from Sigma Aldrich (St. Louis, MO, USA).
(§3) Cell viability was evaluated using the MTT assay kit (Sigma Aldrich, St. Louis, MO, USA). On day one of the experiment, MCF-7, MDA-MB-231 cells and human fibroblasts were seeded into 96-well culture plates (Nunc, Roskilde, Denmark) at a density of 1 × 10^5 cells/mL (human fibroblast cell line) and 5 × 10^4 cells/mL (MCF-7, MDA-MB-231 cell lines). After 24 h of incubation, the culture medium was removed and replaced with serial dilutions of test compounds or anastrozole (1, 12.5, 25, 50, 100 µM). Control wells received fresh medium only. Cells were incubated for another 24 h under standard conditions. Following this, 15 µL of MTT solution (5 mg/mL) was added to each well and incubated for 3 h. Afterward, a 10% sodium dodecyl sulfate (SDS) solution was added, and the plates were left overnight. On the following day, absorbance was measured at 570 nm using a microplate reader (Epoch, BioTek Instruments, Inc., Winooski, VT, USA) with Gen5 software (version 2.01, BioTek Instruments).
(§4) Data were analyzed using GraphPad software version 5.01 (GraphPad Software, Inc., La Jolla, CA, USA). Results are expressed as means ± standard deviation (±SD). IC50 values were calculated using the IC50 calculator provided by AAT Bioquest.

human fibroblasts (HMF) = assay: MTT assay, cell viability of normal HMF fibroblasts; assay type: cell-based; conditions: Fibroblast, 24 h, 24 h exposure
Procedure: as §1, §2, §3, §4

[2] = test system: MCF-7 (estrogen-dependent) breast cancer cell line; assay: MTT assay, cell viability of MCF-7 cells; assay type: cell-based; conditions: Homo sapiens, MCF7, 24 h, 24 h exposure
Procedure: as §1, §2, §3, §4

## COc1cccc(-c2nnc(Nc3ccccc3C(F)(F)F)s2)c1 [2-(2-trifluoromethylphenylamino)-5-(3-methoxyphenyl)-1,3,4-thiadiazole]
MCF-7 cell line
  IC50: 49.6 µM

## Fc1cccc(-c2nnc(Nc3ccccc3I)s2)c1 [A1, 5-(3-Fluorophenyl)-2-(2-iodophenylamino)-1,3,4-thiadiazole]
[1]; Homo sapiens, MDA-MB-231, 24 h
  IC50: > 100 µM
Human fibroblasts (HMF)
  IC50: 51 µM
[2]
  IC50: 66 µM

## Fc1cccc(-c2nnc(Nc3ccccc3Br)s2)c1 [A2, 2-(2-Bromophenylamino)-5-(3-fluorophenyl)-1,3,4-thiadiazole]
[1]; Homo sapiens, MDA-MB-231, 24 h
  IC50: > 100 µM
Human fibroblasts (HMF)
  IC50: 36.5 µM
[2]
  IC50: 52.4 µM

## Fc1cccc(-c2nnc(Nc3ccccc3Cl)s2)c1 [A3, 2-(2-Chlorophenylamino)-5-(3-fluorophenyl)-1,3,4-thiadiazole]
[1]; Homo sapiens, MDA-MB-231, 24 h
  IC50: > 100 µM
Human fibroblasts (HMF)
  IC50: 36.9 µM
[2]
  IC50: 54.8 µM

## CC(C)(C#N)c1cc(Cn2cncn2)cc(C(C)(C)C#N)c1 [Anastrozole, reference compound]
[1]
  IC50: > 100 µM
[1]; Homo sapiens, MDA-MB-231, 24 h
  IC50: ≥ 100 µM
Human fibroblasts (HMF)
  IC50: > 100 µM
[2]
  IC50: > 100 µM

## Fc1ccc(-c2nnc(Nc3ccccc3I)s2)cc1 [B1, 5-(4-Fluorophenyl)-2-(2-iodophenylamino)-1,3,4-thiadiazole]
[1]; Homo sapiens, MDA-MB-231, 24 h
  IC50: > 100 µM
Human fibroblasts (HMF)
  IC50: 45.6 µM
[2]
  IC50: 53.9 µM

## Fc1ccc(-c2nnc(Nc3ccccc3Br)s2)cc1 [B2, 2-(2-Bromophenylamino)-5-(4-fluorophenyl)-1,3,4-thiadiazole]
[1]; Homo sapiens, MDA-MB-231, 24 h
  IC50: > 100 µM
Human fibroblasts (HMF)
  IC50: 41.8 µM
[2]
  IC50: 82.5 µM

## Fc1ccc(-c2nnc(Nc3ccccc3Cl)s2)cc1 [B3, 2-(2-Chlorophenylamino)-5-(4-fluorophenyl)-1,3,4-thiadiazole]
[1]; Homo sapiens, MDA-MB-231, 24 h
  IC50: > 100 µM
Human fibroblasts (HMF)
  IC50: > 100 µM
[2]
  IC50: 54.1 µM
